{
  "source": "patent US8741889B2",
  "about": "“Method of treating non-small cell lung cancer and colon cancer with gamma-secretase inhibitor” (Hoffmann-La Roche Inc, priority 2008, dated 2014)",
  "tested_on": "AsPC1 human pancreatic carcinoma xenografts",
  "assay": "Antitumor efficacy in AsPC1 pancreatic xenografts in nude mice",
  "format": "in vivo",
  "description": "Female (athymic nu/nu) nude mice were obtained from Charles River Laboratories (Wilmington, Mass.), while female SCID-beige mice were purchased from Taconic (Germantown, N.Y.). Mice were used when they were approximately 8-12 weeks old (nudes) or 8-10 weeks old (SCID-beige), and weighed approximately 23-25 grams. The health of all animals was determined daily by gross observation of experimental animals and by the analyses of blood samples of sentinel animals that were housed on the shared shelf racks. All animals were allowed to acclimate and recover from any shipping related stress for a minimum of 72 hours prior to experimental use. Autoclaved water and irradiated food [5058-ms Pico chow (mouse) Purina, Richmond, Ind.] were provided ad libitum, and the animals were maintained on a 12 hour light and dark cycle. Cages, bedding and water bottles were autoclaved before use and were changed weekly. MiaPaca2, AsPC1 and BxPC3 human pancreatic carcinoma cells were purchased from ATCC (Manassas, Va.). BxPC3 and AsPC1 cells were grown in RPMI medium and MiaPaca2 cells were grown in Dulbecco's Modified Essential Medium (DMEM). All culture media were supplemented with 10% (v/v) FBS and 1% (v/v) […]. […] SCID-biege mice were implanted se with 5×10^6 BxPC3 cells in a 1:1 mixture of matrigel:PBS in a volume of 0.2 ml per mouse in the right hind flank on May 22, 2007. […] Formulated compound and vehicle were stored at 4° C. and prepared weekly. The suspension was mixed vigorously prior to administration. Gemcitabine (Gemzar®, Eli Lilly and Company, Indianapolis, Ind., USA) was reconstituted with sterile saline to yield a stock solution of 38 mg/ml for the entire 3-4 week study. […] Nude mice implanted with MiaPaca2 or AsPC1 xenografts were randomized on day 17 and day 9 post cell implant, respectively. SCID-beige mice bearing BxPC3 xenografts were randomized 8 days post implant. […] Treatment for the MiaPaca2 study began on Feb. […] For the MiaPaca2 and AsPC1 studies, qd Compound (1) suspension or q3d gemcitabine treatment ended on day 37 post tumor cell implant, whereas for the BxPC3 study, qd Compound (1) suspension or q3d gemcitabine treatment ended on day 35 post tumor cell implant. For intermittent dosing of Compound (1) suspension in the AsPC1 study using the 7+/7− schedule×2 cycles, treatment ended on day 15, was reinitiated on day 23, and finally ended day 29. For intermittent dosing using the 3+/4− schedule×4 cycles, treatment ended on day 11, was reinitiated on day 16, ended day 18, was reinitiated on day 23, ended day 25, was reinitiated day 30, and finally ended on day 32. In the first combination group, daily Compound (1) was given simultaneously with q3d gemcitabine for a total of four weeks. For the remaining combination groups, Compound (1) and gemcitabine were given sequentially rather than simultaneously. In group 8 gemcitabine was dosed q3d during the 1st and 3rd weeks, whereas Compound (1) was given daily during the 2nd and 4th weeks only. In group 9, the order of compound dosing was reversed, with Compound (1) suspension given daily during the 1st and 3rd weeks, whereas gemcitabine was given q3d during the 2nd and 4th weeks. In group 10, gemcitabine was dosed q3d during the 1st and 2nd weeks, whereas Compound (1) was given daily during the 3rd and 4th weeks. In group 11, the order of compound dosing was reversed, with Compound (1) given daily during the 1st and 2nd weeks, and gemcitabine dosed q3d for the 3rd and 4th weeks. […]",
  "data": [
    {"compound": "CC(C)(C(=O)NCC(F)(F)C(F)(F)F)C(=O)N[C@@H]1C(=O)Nc2ccccc2-c2ccccc21", "note": "[Compound (1), 2,2-Dimethyl-N—((S)-6-oxo-6,7-dihydro-5H-dibenzo[b,d]azepin-7-yl)-N′-(2,2,3,3,3-pentafluoro-propyl)-malonamide]", "values": [
      {"measurement": "% TGI", "setting": "3 mg/kg po qd × 28 days, day 37", "value": 49, "unit": "%"},
      {"measurement": "% TGI", "setting": "10 mg/kg po qd × 28 days, day 37", "value": 58, "unit": "%"},
      {"measurement": "% TGI", "setting": "10 mg/kg po, 3+/4− × 4 cycles", "value": 32, "unit": "%"},
      {"measurement": "% TGI", "setting": "10 mg/kg po, 7+/7− × 2 cycles", "value": 41, "unit": "%"}
    ]}
  ]
}
